The target of experiment [1] is T1, MtInhA (Mycobacterium tuberculosis, UniProt P9WGR1).
T1 construct: made in house
As to the kind of experiment: MtInhA enzyme inhibition by steady-state kinetics (NADH oxidation at 340 nm). It is filed as biochemical. To be noted: for mode of inhibition with respect to NADH / mode of inhibition with respect to DD-CoA: Lineweaver-Burk plot; for IC50: NADH 60 μM, DD-CoA 45 μM, 25 °C, Pipes pH 7.0, read-out: IC50; for Ki: EI complex; for Ki NADH Kii / Ki DD-CoA Kii: ESI complex; for inhibitory activity towards MtInhA: IC50 screening. The protocol:
In order to assess the relative potency of the compounds, inhibition studies were performed by steady-state kinetic studies using a UV-2550 UV/Visible spectrophotometer (Shimadzu^©), monitoring the NADH oxidation at 340 nm (εβ-NADH = […]), in the forward direction. Experiments were performed at 25 °C, in 100 mM Pipes pH 7.0 and were started with the addition of the 2.2 μM MtInhA to a total reaction volume of 500 μL, and monitoring the change in absorbance for 1 min. […] This is needed as IC50 and classical competitive, non-competitive and uncompetitive inhibition modes follow a rapid equilibrium process. Accordingly, MtInhA (2.2 μM) was pre-incubated with inhibitor (10 μM), aliquots were taken at different times and added to the reaction mixture containing NADH (60 μM) and DD-CoA (45 μM), and initial velocity measurements were plotted as a function of time of pre-incubation[6]. Control experiments were carried out pre-incubating MtInhA (2.2 μM) with DMSO (5%) in the absence of inhibitors, and initial velocity measured as a function of time of pre-incubation[6].
The IC50 value, which defines the concentration of inhibitor required to […], was calculated for each compound. The maximal rate for the enzyme reaction was determined in the absence of inhibitor, in the presence of fixed non-saturating concentration of NADH (60 μM ≅ Km) and DD-CoA (45 μM ≅ Km)[10][11][14]. The reaction velocity was analyzed as the percentage of inhibition as a function of inhibitor concentration and data were fitted to Eq 1.
The most promising compounds were further evaluated to assess the inhibition profile and to determine the inhibition constant (Ki). Initial rates were measured as a function of NADH concentration (10–160 μM) at fixed non-saturating DD-CoA concentration (45 μM) and fixed-varied inhibitor concentrations (0.5–120 μM). The Ki values towards NADH were calculated using the uncompetitive equation (Eq. 2) for compounds Labio_6 and Labio_16, in which [I] is the inhibitor concentration, [S] is the substrate concentration, Km and Vmax are, respectively, the Michaelis-Menten constant and maximum velocity, and Kii is the overall inhibition constant for the ESI complex. The Ki of Labio_03 was determined previously.
For compounds Labio_2, Labio_11, Labio_15 and Labio_17, the Ki values with respect to NADH were calculated using Eq. 3, which describes a non-competitive inhibition, where [I] is the inhibitor concentration, [S] is the substrate concentration, Km and Vmax are, respectively, the Michaelis-Menten constant and maximum velocity, Kii is the overall inhibition constant for the ESI complex and Kis is the overall inhibition constant for the EI complex.
Inhibition studies were also carried out in the presence of fixed non-saturating concentration of NADH (60 μM) and fixed-varied inhibitor concentrations (0.5–120 μM), when DD-CoA was the variable substrate (15–135 μM). For compounds Labio_2, Labio_6, and Labio_16, the inhibition constants for the DD-CoA substrate were determined using Eq. 3 for the non-competitive mode of inhibition. For compounds Labio_11, Labio_15 and Labio_17, the Ki for this substrate were calculated from data fitting to the equation for competitive inhibition (Eq. 4), in which [I] is the inhibitor concentration, [S] is the substrate concentration, Km and Vmax are, respectively, the Michaelis-Menten constant and maximum velocity, and Kis is the overall inhibition constant for the EI complex.

Experiment [2] has as its target T2, MtInhA:NADH binary complex (Mycobacterium tuberculosis, UniProt P9WGR1).
T2 construct: made in house
Kind of experiment: biochemical. It is filed as binding. To be noted: for Kd: 25 °C (298.15 K); for ΔG: estimated from ΔH and ΔS (Eq. 7); for ΔH / ΔS: van't Hoff analysis, 15–30 °C.

The test system of experiment [3] is M. tuberculosis H37Rv. As to the kind of experiment: microbe, parasite or virus in culture. Conditions: Mycobacterium tuberculosis, 216 h, 7 days + 48 h resazurin, read-out: MIC H37Rv. It is filed as cell-based. A general note: The colour change of resazurin is a common sign of viable cells or microbes.
For experiment [4], the system named is M. tuberculosis H37Rv in infected RAW 264.7 macrophages. Kind of experiment: Intracellular activity in M. tuberculosis-infected macrophages (CFU). In kind it is cell-based, Mycobacterium tuberculosis. To be noted: 5 μM; for decrease in CFU counts compared to early control / decrease in CFU counts compared to untreated late control: 5 days; for Mean log CFU/well ± SEM: 5 days of incubation.

Experiment [5] has as its target T1, MtInhA. Further details: method as in PMID 23889525. Conditions: ESI complex; determined previously ref 12; cited from earlier work.
Where [6] appears, read: varied DD-CoA 15–135 μM, fixed NADH 60 μM, read-out: Ki DD-CoA Kis.
[7] abbreviates: varied NADH 10–160 μM, fixed DD-CoA 45 μM, read-out: Ki NADH Kis.
The mark [8] stands for this setting: varied NADH 10–160 μM, fixed DD-CoA 45 μM.
Setting [9] is: varied DD-CoA 15–135 μM, fixed NADH 60 μM.

Like-named read-outs stand apart in the source and are kept apart here. Marks after values point to notes of the source that are not given here.

T2 sequence (P9WGR1 whole entry, looked up, one chain of several): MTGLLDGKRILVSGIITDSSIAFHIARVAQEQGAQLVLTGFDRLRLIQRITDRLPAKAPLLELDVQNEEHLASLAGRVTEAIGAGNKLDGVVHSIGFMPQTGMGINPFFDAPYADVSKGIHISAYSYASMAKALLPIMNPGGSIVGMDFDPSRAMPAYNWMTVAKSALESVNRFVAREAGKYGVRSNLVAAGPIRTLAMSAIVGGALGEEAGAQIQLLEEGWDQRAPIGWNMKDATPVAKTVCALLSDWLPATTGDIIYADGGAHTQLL
T1 sequence (P9WGR1 whole entry, looked up): as the sequence (P9WGR1 whole entry, looked up, one chain of several) above

As for `COc1ccc(-c2n[nH]cc2/C=N\NC(=O)c2cc(C)nc3c(C)cccc23)cc1` [Labio_11], the “mode of inhibition with respect to NADH” value in experiment [1] (fixed DD-CoA 45 μM) is “non-competitive”. In addition, the “mode of inhibition with respect to DD-CoA” value in experiment [1] (fixed NADH 60 μM) is recorded as “competitive”. The IC50 in experiment [1] came out at 87 ± 3 µM. Further, the Ki in experiment [1] (setting [6]) came out at 27 ± 3 µM. Moreover, the Ki in experiment [1] (setting [7]) came out at 44 ± 14 µM. Besides, in experiment [1] (setting [8]), the “Ki NADH Kii” value is 41 ± 6 µM. For the same compound, in experiment [2], the Kd turned out to be 17.9 ± 1.1 µM, the ΔG was -27.2 ± 3.8 kJ/mol, the ΔH is -78.2 ± 7.11 kJ/mol and the ΔS is listed as −40.9 ± 5.9 cal.mol^−1.K^−1. The MIC in experiment [3] was above 100 mg/L.
Turning to `NNC(=O)c1ccncc1` [INH, Isoniazid], the MIC in experiment [3] was found to be 0.31 mg/L. Also, in experiment [4], the “decrease in CFU counts compared to early control” value worked out at 1.7 log10, the “decrease in CFU counts compared to untreated late control” value is reported as 2.3 log10 and the “Mean log CFU/well ± SEM” value is reported as 2.4 ± 0.1***^+++ log CFU/well.
`CCN(CC)Cc1cc(-c2ccnc3cc(Cl)ccc23)ccc1O` [Labio_15]: the “mode of inhibition with respect to NADH” value in experiment [1] (fixed DD-CoA 45 μM) was “non-competitive”. In addition, the “mode of inhibition with respect to DD-CoA” value in experiment [1] (fixed NADH 60 μM) is recorded as “competitive”. For the same compound, in experiment [1], the IC50 came out at 83 ± 2 µM. In experiment [1] (setting [6]), the Ki worked out at 74 ± 8 µM. Further, the Ki in experiment [1] (setting [7]) stood at 110 ± 26 µM. Further, in experiment [1] (setting [8]), the “Ki NADH Kii” value came out at 110 ± 11 µM. Also, in experiment [2], binding was put at a Kd of 29.4 ± 2.1 µM, the ΔG is -25.9 ± 6.28 kJ/mol, the ΔH is -40.2 ± 3.3 kJ/mol and the ΔS is −11.5 ± 2.8 cal.mol^−1.K^−1. The MIC in experiment [3] stood at 25 mg/L.
`Cc1nc([C@H](C)NC(=O)c2ccc3oc(Cc4ccccc4F)nc3c2)cs1` [Labio_2]: the “mode of inhibition with respect to NADH” value in experiment [1] (fixed DD-CoA 45 μM) is recorded as “non-competitive”. Besides, the “mode of inhibition with respect to DD-CoA” value in experiment [1] (fixed NADH 60 μM) was “non-competitive”. Moreover, the IC50 in experiment [1] was 18 ± 2 µM. In addition, in experiment [1] (setting [6]), the Ki came out at 0.7 ± 0.4 µM. Also, the “Ki DD-CoA Kii” value in experiment [1] (setting [9]) was 0.7 ± 0.2 µM. In addition, the Ki in experiment [1] (setting [7]) was found to be 2.3 ± 0.8 µM. The “Ki NADH Kii” value in experiment [1] (setting [8]) came out at 2.2 ± 0.6 µM. In addition, in experiment [2], the Kd worked out at 2.2 ± 0.2 µM, the ΔG is -32.2 ± 2.9 kJ/mol, the ΔH is -158 ± 11.3 kJ/mol and the ΔS was −100.5 ± 9.2 cal.mol^−1.K^−1. For the same compound, the MIC in experiment [3] was above 100 mg/L.
Consider `COc1cccc(-c2cccc(NC(=O)C3CCN(CC=C(C)C)CC3)c2)c1` [Labio_20], for which the “inhibitory activity towards MtInhA” value in experiment [1] was “no inhibitory activity”. Besides, the MIC in experiment [3] came to 23.8 mg/L.
Regarding `O=C(CNC(=O)c1ccc2c(c1)OCO2)Nc1ccc(Nc2ccccc2)cc1` [Labio_12], in experiment [1], the “inhibitory activity towards MtInhA” value is given as “no inhibitory activity”. The MIC in experiment [3] was above 100 mg/L.
With `CCCOc1ccc(-c2nnc(NC(=O)Nc3ccccc3C)s2)cc1` [Labio_3], the “mode of inhibition with respect to NADH” value in experiment [1] (fixed DD-CoA 45 μM) is “uncompetitive”. Moreover, in experiment [1] (fixed NADH 60 μM), the “mode of inhibition with respect to DD-CoA” value is “uncompetitive”. Besides, the IC50 in experiment [1] is 19 ± 2 µM. In experiment [2], the Kd was determined as 4.4 ± 0.4 µM, the ΔG is -31 ± 2.9 kJ/mol, the ΔH is -116 ± 7.53 kJ/mol and the ΔS is −68.5 ± 6.3 cal.mol^−1.K^−1. In experiment [3], the MIC came out at 11.2 mg/L. In addition, in experiment [5], the “Ki DD-CoA Kii” value was 20 ± 2 µM and the “Ki NADH Kii” value was 24 ± 3 µM.
Regarding `Cc1cccc(NC(=O)/C(C#N)=C/c2ccc(OCc3ccccc3)cc2)n1` [Labio_7], the “inhibitory activity towards MtInhA” value in experiment [1] is “no inhibitory activity”. In addition, the MIC in experiment [3] is above 10 mg/L.
Regarding `Cc1ccc(N2C[C@@H](c3nc(-c4ccc(OC(C)C)cc4)no3)CC2=O)c(C)c1` [Labio_13], the “inhibitory activity towards MtInhA” value in experiment [1] is reported as “no inhibitory activity”. The MIC in experiment [3] was above 10 mg/L.
Turning to `Cc1ccc(N2C[C@@H](c3nc(-c4ccc(OC(C)C)cc4)no3)CC2=O)cc1C` [Labio_8], the “inhibitory activity towards MtInhA” value in experiment [1] is “no inhibitory activity”. Moreover, the MIC in experiment [3] was above 10 mg/L.
With `COc1ccc(CCC(=O)Nc2nn3cc(-c4ccccc4)nc3s2)cc1` [Labio_6], the “mode of inhibition with respect to NADH” value in experiment [1] (fixed DD-CoA 45 μM) is “uncompetitive”. Further, the “mode of inhibition with respect to DD-CoA” value in experiment [1] (fixed NADH 60 μM) was “non-competitive”. The IC50 in experiment [1] was 9.8 ± 0.9 µM. Also, the Ki in experiment [1] (setting [6]) was determined as 0.7 ± 0.2 µM. Also, the “Ki DD-CoA Kii” value in experiment [1] (setting [9]) came out at 0.7 ± 0.1 µM. For the same compound, in experiment [1] (setting [8]), the “Ki NADH Kii” value was 1.8 ± 0.2 µM. Moreover, in experiment [2], the Kd was 3.1 ± 0.4 µM, the ΔG is -31.8 ± 2.9 kJ/mol, the ΔH is -187 ± 15.1 kJ/mol and the ΔS is reported as −124.2 ± 12.3 cal.mol^−1.K^−1. In addition, the MIC in experiment [3] is above 10 mg/L.
In the case of `CO[C@H]1/C=C/O[C@@]2(C)Oc3c(C)c(O)c4c(O)c(c(/C=N/N5CCN(C)CC5)c(O)c4c3C2=O)NC(=O)/C(C)=C\C=C\[C@H](C)[C@H](O)[C@@H](C)[C@@H](O)[C@@H](C)[C@H](OC(C)=O)[C@@H]1C` [Rifampin], in experiment [4], the “decrease in CFU counts compared to early control” value is 1.7 log10, the “decrease in CFU counts compared to untreated late control” value is listed as 2.3 log10 and the “Mean log CFU/well ± SEM” value was 2.4 ± 0.1***^+++ log CFU/well.
For `O=C(Cc1csc(-c2ccccn2)n1)Nc1ccccc1Oc1ccccc1` [Labio_1], the “inhibitory activity towards MtInhA” value in experiment [1] is reported as “no inhibitory activity”. In addition, in experiment [3], the MIC is above 10 mg/L.
On the same counts, the results for `Cc1cc(NC(=O)Cc2csc(-c3ccsc3)n2)ccc1Br` [Labio_9] are “no inhibitory activity” and above 10 mg/L.

The IC50 is the midpoint of a concentration-inhibition curve. As a reminder, the Ki is the equilibrium dissociation constant of an inhibitor or competing ligand from its target. The term Kd denotes the constant that tells how readily two partners part at equilibrium.

Values taken from article PMC5402281, “Functional, thermodynamics, structural and biological studies of in silico-identified inhibitors of Mycobacterium tuberculosis enoyl-ACP(CoA) reductase enzyme” (Scientific Reports, 2017).
